Measured values from patent publication US11191762B2, “Alkyl substituted triazole compounds as agonists of the APJ Receptor” (priority 2016, dated 2021).

molecular target: human APJ receptor (Homo sapiens (Human), UniProt P35414); assay: biochemical; assay type: biochemical; settings: [35S]GTPγS binding, membranes from CHO cells stably expressing human APJ receptor; read-out: Activity hAPJ SPA EC50 IP
How it was run: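 [35S]GTPγS binding to membranes from CHO cells stably expressing human APJ, captured on WGA PS beads (5 μg/well). Buffer: 20 mM HEPES pH 7.5, 5 mM MgCl2, 100 mM NaCl, 0.1% BSA, with 3 μM GDP and 0.1 nM [35S]GTPγS final; compounds tested as 22-point 2-fold dilutions.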

human APJ receptor, sequence (P35414 whole entry): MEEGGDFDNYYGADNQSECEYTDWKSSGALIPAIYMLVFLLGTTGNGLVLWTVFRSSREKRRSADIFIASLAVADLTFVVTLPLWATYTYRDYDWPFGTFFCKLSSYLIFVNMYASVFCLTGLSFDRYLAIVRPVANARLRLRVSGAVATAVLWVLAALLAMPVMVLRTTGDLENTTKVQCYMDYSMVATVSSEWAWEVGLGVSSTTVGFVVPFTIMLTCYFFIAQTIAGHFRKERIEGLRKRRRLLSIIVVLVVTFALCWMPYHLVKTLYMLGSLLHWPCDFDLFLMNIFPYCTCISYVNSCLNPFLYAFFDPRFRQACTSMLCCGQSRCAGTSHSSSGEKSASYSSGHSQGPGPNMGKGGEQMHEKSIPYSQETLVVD

Compound	EC50
CO[C@H](c1ncc(Cl)cn1)[C@H](C)S(=O)(=O)Nc1nnc(CC2CCC2)n1C1CCOCC1 [Example 25.0, (1R,2S)-1-(5-chloro-2-pyrimidinyl)-N-(5-(cyclobutylmethyl)-4-(tetrahydro-2H-pyran-4-yl)-4H-1,2,4-triazol-3-yl)-1-methoxy-2-propanesulfonamide]	370 nM
(1R,2S)-1-(5-chloro-2-pyrimidinyl)-N-(5-((1R)-1-cyclopropylethyl)-4-(4,6-dimethoxy-5-pyrimidinyl)-4H-1,2,4-triazol-3-yl)-1-methoxy-2-propanesulfonamide and (1R,2S)-1-(5-chloro-2-pyrimidinyl)-N-(5-((1S)-1-cyclopropylethyl)-4-(4,6-dimethoxy-5-pyrimidinyl)-4H-1,2,4-triazol-3-yl)-1-methoxy-2-propanesulfonamide [Example 167.0]	110 nM
COCc1nnc(NS(=O)(=O)[C@@H](C)[C@@H](OC(C)C)c2ncc(Cl)cn2)n1-c1c(OC)ncnc1OC [Example 134.0]	12 nM
COCc1nnc(NS(=O)(=O)[C@@H](C)[C@H](C)c2cnc(C)cn2)n1-c1c(OC)ncnc1OC [Example 9.0, (2S,3R)-N-(4-(4,6-dimethoxy-5-pyrimidinyl)-5-(methoxymethyl)-4H-1,2,4-triazol-3-yl)-3-(5-methyl-2-pyrazinyl)-2-butanesulfonamide]	630 nM
COc1cccc(OC)c1-n1c(NS(=O)(=O)[C@@H](C)[C@H](C)c2ncc(C)cn2)nnc1-c1cccc2c1CC(=O)N2 [Example 16.0, (2S,3R)-N-(4-(2,6-dimethoxyphenyl)-5-(2-oxoindolin-4-yl)-4H-1,2,4-triazol-3-yl)-3-(5-methylpyrimidin-2-yl)butane-2-sulfonamide]	120 nM
COc1cccc(OC)c1-n1c(Cc2ccncc2)nnc1NS(=O)(=O)[C@@H](C)[C@H](C)c1ncc(Cl)cn1 [Example 45.0, (2S,3R)-3-(5-chloro-2-pyrimidinyl)-N-(4-(2,6-dimethoxyphenyl)-5-(4-pyridinylmethyl)-4H-1,2,4-triazol-3-yl)-2-butanesulfonamide]	1.7 nM
CCCCc1nnc(NS(=O)(=O)[C@@H](C)[C@H](C)c2ncc(C)cn2)n1-c1c(OC)cccc1OC [Example 176.0]	1.9 nM
COc1ncnc(OC)c1-n1c(CC2CC2)nnc1NS(=O)(=O)[C@@H](C)[C@H](OC)c1ncc(Cl)cn1 [Example 27.0, (1R,2S)-1-(5-chloro-2-pyrimidinyl)-N-(5-(cyclopropylmethyl)-4-(4,6-dimethoxy-5-pyrimidinyl)-4H-1,2,4-triazol-3-yl)-1-methoxy-2-propanesulfonamide]	7.6 nM
COc1ncnc(OC)c1-n1c(COC(C)C)nnc1NS(=O)(=O)[C@@H](C)[C@H](OC)c1ncc(Cl)cn1 [Example 79.0, (1R,2S)-1-(5-chloropyrimidin-2-yl)-N-(4-(4.6-dimethoxypyrimidin-5-yl)-5-(isopropoxymethyl)-4H-1,2,4-triazol-3-yl)-1-methoxypropane-2-sulfonamide]	2.9 nM
(S)-N-(4-(2,6-dimethoxyphenyl)-5-(methoxymethyl)-4H-1,2,4-triazol-3-yl)-1-(5-fluoropyrimidin-2-yl)piperidine-3-sulfonamide or (R)-N-(4-(2,6-dimethoxyphenyl)-5-(methoxymethyl)-4H-1,2,4-triazol-3-yl)-1-(5-fluoropyrimidin-2-yl)piperidine-3-sulfonamide [Example 77.0]	176 nM
COc1cccc(OC)c1-n1c(CS(C)(=O)=O)nnc1NS(=O)(=O)[C@@H](C)[C@H](C)c1ncc(Cl)cn1 [Example 37.0, (2S,3R)-3-(5-chloro-2-pyrimidinyl)-N-(4-(2,6-dimethoxyphenyl)-5-((methylsulfonyl)methyl)-4H-1,2,4-triazol-3-yl)-2-butanesulfonamide]	340 nM
COc1cccc(OC)c1-n1c(Cc2cccs2)nnc1NS(=O)(=O)[C@@H](C)[C@H](C)c1ncc(Cl)cn1 [Example 43.0, (2S,3R)-3-(5-chloro-2-pyrimidinyl)-N-(4-(2,6-dimethoxyphenyl)-5-(2-thiophenylmethyl)-4H-1,2,4-triazol-3-yl)-2-butanesulfonamide]	2.7 nM
COCc1nnc(NS(=O)(=O)[C@@H](C)[C@@H](OC(C)C)c2ccc(C)cn2)n1-c1c(OC)cccc1OC [Example 155.0]	12 nM
COCc1nnc(NS(=O)(=O)[C@@H](C)[C@H](OC)c2ncc(Cl)cn2)n1C(COC)COC [Example 124.0, (1R,2S)-1-(5-Chloro-2-pyrimidinyl)-N-(4-(1,3-dimethoxy-2-propanyl)-5-(methoxymethyl)-4H-1,2,4-triazol-3-yl)-1-methoxy-2-propanesulfonamide]	85 nM
COCCc1nnc(NS(=O)(=O)[C@@H](C)[C@H](C)c2ncc(Cl)cn2)n1-c1c(OC)cccc1OC [Example 32.0, (2S,3R)-3-(5-chloro-2-pyrimidinyl)-N-(4-(2,6-dimethoxyphenyl)-5-(2-methoxyethyl)-4H-1,2,4-triazol-3-yl)-2-butanesulfonamide]	10 nM
COc1cccc(OC)c1-n1c(CN2CCCCCC2=O)nnc1NS(=O)(=O)[C@@H](C)[C@H](OC)c1ncc(C)cn1 [Example 52.0]	650 nM
COc1ncnc(OC)c1-n1c(CC(F)(F)F)nnc1NS(=O)(=O)[C@@H](C)[C@H](OC)c1ncc(Cl)cn1 [Example 67.0, (1R,2S)-1-(5-chloropyrimidin-2-yl)-N-(4-(4,6-dimethoxypyrimidine-5-yl)-5-(2.2.2-trifluoroethyl)-4H-1.2.4-triazol-3-yl)-1-methoxypropane-2-sulfonamide]	230 nM
COc1cccc(OC)c1-n1c(CC(C)(C)OC)nnc1NS(=O)(=O)[C@@H](C)[C@H](C)c1ncc(Cl)cn1 [Example 40.0, (2S,3R)-3-(5-chloro-2-pyrimidinyl)-N-(4-(2,6-dimethoxyphenyl)-5-(2-methoxy-2-methylpropyl)-4H-1,2,4-triazol-3-yl)-2-butanesulfonamide]	110 nM
COc1ncnc(OC)c1-n1c(COC(F)F)nnc1NS(=O)(=O)[C@@H](C)[C@H](OC)c1ncc(Cl)cn1 [Example 128.0, (1R,2S)-1-(5-chloropyrimidin-2-yl)-N-(5-((difluoromethoxy)methyl)-4-(4,6-dimethoxypyrimidin-5-yl)-4H-1,2,4-triazol-3-yl)-1-methoxypropane-2-sulfonamide]	60 nM
COCc1nnc(NS(=O)(=O)[C@@H](C)[C@H](OC)c2ncc(Cl)cn2)n1C(C)C [Example 144.0]	1200 nM
COc1cccc(OC)c1-n1c(Cc2cccnc2)nnc1NS(=O)(=O)[C@@H](C)[C@H](C)c1ncc(C)cn1 [Example 15.0, (2S,3R)-N-(4-(2,6-dimethoxyphenyl)-5-(3-pyridinylmethyl)-4H-1,2,4-triazol-3-yl)-3-(5-methyl-2-pyrimidinyl)-2-butanesulfonamide]	180 nM
COc1cccc(OC)c1-n1c(NS(=O)(=O)[C@@H](C)[C@H](C)c2ncc(Cl)cn2)nnc1[C@@H](O)c1ccccc1 [Example 13.0, (2S,3R)-3-(5-chloro-2-pyrimidinyl)-N-(4-(2,6-dimethoxyphenyl)-5-((S)-hydroxy(phenyl)methyl)-4H-1,2,4-triazol-3-yl)-2-butanesulfonamide]	110 nM
COCc1nnc(NS(=O)(=O)[C@@H](C)[C@H](C)c2cnc(C)cn2)n1-c1c(OC)cccc1OC [Example 8.0, (2S,3R)-N-(4-(2,6-dimethoxyphenyl)-5-(methoxymethyl)-4H-1,2,4-triazol-3-yl)-3-(5-methyl-2-pyrazinyl)-2-butanesulfonamide]	260 nM
COc1ncnc(OC)c1-n1c(CC2CCC2)nnc1NS(=O)(=O)[C@@H](C)[C@H](OC)c1ncc(Cl)cn1 [Example 24.0, (1R,2S)-1-(5-chloro-2-pyrimidinyl)-N-(5-(cyclobutylmethyl)-4-(4,6-dimethoxy-5-pyrimidinyl)-4H-1,2,4-triazol-3-yl)-1-methoxy-2-propanesulfonamide]	1.5 nM
CO[C@H](c1ncc(Cl)cn1)[C@H](C)S(=O)(=O)Nc1nnc(C)n1C1(C)CC1 [Example 55.0, (1R,2S)-1-(5-chloropyrimidin-2-yl)-1-methoxy-N-(5-methyl-4-(1-methylcyclopropyl)-4H-1,2,4-triazol-3-yl)propane-2-sulfonamide]	540 nM
COc1cccc(OC)c1-n1c(NS(=O)(=O)[C@@H](C)[C@H](C)c2ncc(C)cn2)nnc1[C@H](OC)c1ccccc1 [Example 18.0, (2S,3R)-N-(4-(2,6-dimethoxyphenyl)-5-((R)-methoxy(phenyl)methyl)-4H-1,2,4-triazol-3-yl)-3-(5-methyl-2-pyrimidinyl)-2-butanesulfonamide]	240 nM
COc1cccc(OC)c1-n1c(Cc2ccncc2)nnc1NS(=O)(=O)[C@@H](C)[C@H](C)c1ncc(Cl)cn1 [Example 141.0, (2S,3R)-3-(5-Chloro-2-pyrimidinyl)-N-(4-(2,6-dimethoxyphenyl)-5-(4-pyridinylmethyl)-4H-1,2,4-triazol-3-yl)-2-butanesulfonamide]	100 nM
COCCn1c(COC)nnc1NS(=O)(=O)[C@@H](C)[C@H](OC)c1ncc(Cl)cn1 [Example 156.0]	520 nM

same assay, conditions: read-out: Activity hAPJ SPA EC50 IP

Compound	EC50
COCCOCc1nnc(NS(=O)(=O)[C@@H](C)[C@H](C)c2ncc(Cl)cn2)n1-c1c(OC)cccc1OC [Example 151.0]	24 nM
COCc1nnc(NS(=O)(=O)[C@@H](C)[C@H](OC)c2ncc(Cl)cn2)n1-c1c(OC)ncnc1OC [Example 58.0, (1R,2S)-1-(5-chloropyrimidin-2yl)-N-(4-(4.6-dimethoxypyrimidin-5-yl)-5-(methoxymethyl)-4H-l,2,4-triazol-3-yl)-1-methoxypropane-2-sulfonamide]	330 nM
COCc1nnc(NS(=O)(=O)[C@@H](C)[C@H](C)c2ccc(Cl)cn2)n1-c1c(OC)cccc1OC [Example 75.0, (2S,3R)-3-(5-chloropyridin-2-yl)-N-(4-(2,6-dimethoxyphenyl)-5-(methoxymethyl)-4H-1,2,4-triazol-3-yl)butane-2-sulfonamide]	3.1 nM
